{"source": "patent US10328143B2", "about": "“Hemagglutinin-binding peptide” (priority 2014, dated 2019)", "key": {"[1]": {"test_system": "highly pathogenic avian influenza virus H5N1 A/whooper swan/Hokkaido/1/08 (5×MLD50)", "set-up": "species or system mice", "conditions": "mouse, in vivo"}, "[2]": {"test_system": "influenza virus H5N1 Vac-3", "assay_type": "cell-based", "conditions": "for anti-viral effect compared with zanamivir (Relenza): 0.01, 0.1, 1 μM"}, "[3]": {"test_system": "influenza virus H2N2-Adachi strain", "assay_type": "cell-based"}, "[4]": {"test_system": "highly pathogenic avian influenza virus H5N1: A/ws/Hokkaido/1/08 (clade 2.3), A/ws/Mongolia/3/05 (clade 2.2), A/Vietnam/UT3040/04 (clade 1)", "assay_type": "cell-based"}, "[5]": {"test_system": "influenza virus H1N1-pdm 2619", "assay_type": "cell-based"}}}
{"molecule": "CC(=O)N[C@H]1[C@H]([C@H](O)[C@H](O)CO)OC(C(=O)O)=C[C@@H]1N=C(N)N", "note": "[zanamivir]", "values": [{"measurement": "lethality", "setting": "[1]", "result": "a dead individual is found"}, {"measurement": "treatment effect", "setting": "[1]", "result": "no treatment effect is obtained"}]}
{"molecule": "Cyclo(Ac-Trp-Ser-MePhe-MeGly-His-Val-His-Tyr-Ser-Val-MePhe-Asn-MeAla-Val-Cys)-amide [iHA-102]", "values": [{"measurement": "anti-viral effect compared with positive control iHA-24", "setting": "[2]", "result": "markedly higher than that of the peptide iHA-24"}, {"measurement": "anti-viral effect compared with zanamivir (Relenza)", "setting": "[2]", "result": "comparable to that of zanamivir"}]}
{"molecule": "Cyclo(Ac-Trp-Thr-MeGly-Asp-MePhe-MePhe-Ser-MeSer-His-Tyr-Thr-Val-Pro-Arg-Cys)-amide [iHA-100]", "values": [{"measurement": "anti-viral effect compared with zanamivir (Relenza)", "setting": "[3]", "result": "comparable to that of zanamivir"}, {"measurement": "number of plaques", "setting": "[3]", "result": "dose-dependently decreased the number of plaques"}, {"measurement": "lethal rate", "setting": "[1]", "result": "a decrease in lethal rate is observed"}, {"measurement": "effect compared with iHA-24", "setting": "[4]", "result": "markedly higher than that of iHA-24"}, {"measurement": "effect compared with zanamivir", "setting": "[4]", "result": "on the same level as that of zanamivir"}, {"measurement": "anti-viral effect compared with positive control iHA-24", "setting": "[2]", "result": "markedly higher than that of the peptide iHA-24"}, {"measurement": "anti-viral effect compared with zanamivir (Relenza)", "setting": "[2]", "result": "comparable to that of zanamivir"}, {"measurement": "anti-viral effect compared with zanamivir (Relenza)", "setting": "[5]", "result": "comparable to that of zanamivir"}]}
{"molecule": "Cyclo(Ac-Trp-Thr-MeGly-Thr-His-Val-Arg-Tyr-Thr-Val-MePhe-Asn-MeAla-Ser-Cys)-amide [iHA-103]", "values": [{"measurement": "anti-viral effect compared with positive control iHA-24", "setting": "[2]", "result": "markedly higher than that of the peptide iHA-24"}, {"measurement": "anti-viral effect compared with zanamivir (Relenza)", "setting": "[2]", "result": "comparable to that of zanamivir"}]}
